This is an account of results in PMC7838546, “A Thermostable, Modified Cathelicidin-Derived Peptide With Enhanced Membrane-Active Activity Against Salmonella enterica serovar Typhimurium” (Frontiers in Microbiology, 2021).

Ends that are not written are not given here.

Assay [1] has as its system S. enterica serovar 4,5,12:i:- H2-009 (foodborne isolate). Format: cell-based, Salmonella enterica serovar 4,5,12:i:-. To be noted: H2-009, pork fat, resistant Amp, C, T, broth microdilution, 37°C, 24 h. As to the method: (§1) Salmonella enterica serovar Typhimurium ATCC 13311, 24 drug-resistant foodborne and eleven drug-resistant human borne S. enterica serovar Typhimurium and 4,5,12:i:- isolates (Table 1) were used as test microorganisms. They were previously isolated for molecular characterization in 2014 and kindly provided by Dr. Soraya Chaturongakul (Mahidol University, Thailand) ([Huoy et al., 2014]). All bacteria were cultured in Tryptic Soy Broth (TSB) and incubated at 37°C for 18 h. Mueller Hinton Broth (MHB) was then used to wash and rinse the bacteria. The bacterial suspensions were then diluted to obtain concentrations of 10^7 CFU/ml for inoculations.
(§2) A modified version of the National Committee for Clinical Laboratory Standards (NCCLS) broth microdilution method ([Steinberg et al., 1997]) was used to determine the minimum inhibitory concentrations (MICs) of peptide and compared to that of nisin. Fifty microliters of two-fold serial dilutions of each peptide [0.98–250 μg/ml in 0.01% (v/v) acetic acid and 0.2% (w/v) bovine serum albumin (BSA, Sigma-Aldrich, MO, United States)], were incubated with 50 μl of bacterial suspensions (approximately 10^7 CFU/ml) at 37°C for 24 h in a shaking incubator. MICs were taken as the lowest concentration of peptide at which growth was inhibited as observed by visual inspection. Bacterial cultures without peptides and uncultured broth were used as positive and negative controls, respectively. Minimal bactericidal concentrations (MBCs) were determined using a colony count assay ([Clinical Laboratory Standards Institute [CLSI], 2015]). Fifty microliters of samples from each non-turbid well in the MIC determination experiment was plated on Mueller Hinton Agar (MHA) and colonies were observed after overnight incubation at 37°C. MBCs were designated as the least concentration showing no colony growth on the plate. All of experiments were performed in triplicate.
Background: Broth dilution looks for growth in wells or tubes with falling amounts of substance.

For assay [2], the system named is S. enterica serovar 4,5,12:i:- H1-102 (clinical isolate). In kind it is cell-based, Salmonella enterica serovar 4,5,12:i:-. The note with it: H1-102, stool, resistant Amp, C, T, SxT, intermediate Amc; for MIC: broth microdilution, 37°C, 24 h. As to the method: as §1, §2
For assay [3], the system named is S. enterica serovar 4,5,12:i:- H2-045 (foodborne isolate). Format: cell-based, Salmonella enterica serovar 4,5,12:i:-. To be noted: H2-045, pork intestine, resistant Amp, T, intermediate Cp; for MIC: broth microdilution, 37°C, 24 h. As to the method: as §1, §2
In assay [4] the test system is S. enterica serovar 4,5,12:i:- H2-044 (foodborne isolate). Format: cell-based, Salmonella enterica serovar 4,5,12:i:-. The note with it: H2-044, pork kidney, resistant Amp, C, T, SxT, intermediate Cp; for MIC: broth microdilution, 37°C, 24 h. As for the experimental part:
as §1, §2

The subject of assay [5] is S. enterica serovar 4,5,12:i:- H2-043 (foodborne isolate). In kind it is cell-based, Salmonella enterica serovar 4,5,12:i:-. The note with it: H2-043, pork heart, resistant Amp, T, intermediate Cp; for MIC: broth microdilution, 37°C, 24 h. As for the experimental part: as §1, §2
For assay [6], the system named is S. enterica serovar 4,5,12:i:- H2-042 (foodborne isolate). Format: cell-based, Salmonella enterica serovar 4,5,12:i:-. The note with it: H2-042, pork intestine, resistant Amp, C, T, SxT, intermediate Cp; for MIC: broth microdilution, 37°C, 24 h. As for the experimental part: as §1, §2
Assay [7] concerns S. enterica serovar 4,5,12:i:- H2-039 (foodborne isolate). Format: cell-based, Salmonella enterica serovar 4,5,12:i:-. To be noted: H2-039, pork intestine, resistant Amp, T; for MIC: broth microdilution, 37°C, 24 h. As for the experimental part:
as §1, §2

Assay [8] has as its system S. enterica serovar 4,5,12:i:- H1-024 (clinical isolate). Format: cell-based, Salmonella enterica serovar 4,5,12:i:-. The note with it: H1-024, rectal swab, resistant Amc, Amp, Ctx, C, NA, SxT, intermediate Cp; for MIC: broth microdilution, 37°C, 24 h. As to the method:
as §1, §2

Assay [9] has as its system S. enterica serovar 4,5,12:i:- H2-054 (foodborne isolate). Format: cell-based, Salmonella enterica serovar 4,5,12:i:-. To be noted: H2-054, pork intestine, resistant Amp, T; for MIC: broth microdilution, 37°C, 24 h. As to the method: as §1, §2
The test system of assay [10] is S. enterica serovar 4,5,12:i:- H2-075 (foodborne isolate). Format: cell-based, Salmonella enterica serovar 4,5,12:i:-. The note with it: H2-075, pork intestine, resistant Amp, T; for MIC: broth microdilution, 37°C, 24 h. As for the experimental part: as §1, §2
Assay [11] concerns S. enterica serovar 4,5,12:i:- H1-100 (clinical isolate). In kind it is cell-based, Salmonella enterica serovar 4,5,12:i:-. The note with it: H1-100, stool, resistant Amp, C, Cp, T, SxT, intermediate Amc, NA; for MIC: broth microdilution, 37°C, 24 h. As to the method:
as §1, §2

Assay [12] relates to S. enterica serovar 4,5,12:i:- H2-038 (foodborne isolate). In kind it is cell-based, Salmonella enterica serovar 4,5,12:i:-. The note with it: H2-038, pork kidney, resistant Amp, T; for MIC: broth microdilution, 37°C, 24 h. As to the method:
as §1, §2

Assay [13] concerns S. enterica serovar 4,5,12:i:- H2-010 (foodborne isolate). Format: cell-based, Salmonella enterica serovar 4,5,12:i:-. To be noted: H2-010, pork skin, resistant Amp, C, T, broth microdilution, 37°C, 24 h. As for the experimental part:
as §1, §2

Assay [14] relates to S. enterica serovar 4,5,12:i:- H2-070 (foodborne isolate). Format: cell-based, Salmonella enterica serovar 4,5,12:i:-. To be noted: H2-070, pork liver, resistant Amp, Ctx, C, T, SxT, intermediate Cp; for MIC: broth microdilution, 37°C, 24 h. As to the method: as §1, §2
Assay [15] relates to S. enterica serovar 4,5,12:i:- H2-049 (foodborne isolate). Format: cell-based, Salmonella enterica serovar 4,5,12:i:-. To be noted: H2-049, pork intestine, resistant Amp, T, broth microdilution, 37°C, 24 h. As for the experimental part:
as §1, §2

In assay [16] the test system is Salmonella enterica serovar Typhimurium ATCC 13311. In kind it is cell-based. To be noted: ATCC 13311, standard strain, triplicate; for MIC: broth microdilution, ~10^7 CFU/ml, 37°C, 24 h. As for the experimental part: as §1, §2

As for KIAKRIWKILRR-NH2 [P7], the MIC in assay [1] is 3.91 µg/mL; in assay [2] it was 7.81 (7.81) μg/ml; in assay [3], 7.81 (7.81) μg/ml; in assay [4], 7.81 (7.81) μg/ml; in assay [5], 7.81 (7.81) μg/ml; in assay [6], 7.81 (7.81) μg/ml. Besides, the MIC is 3.91 (3.91) μg/ml in assay [7]; 3.91 (3.91) μg/ml in assay [8]; 7.81 (7.81) μg/ml in assay [9]; 7.81 (7.81) μg/ml in assay [10]; 7.81 (7.81) μg/ml in assay [11]; 7.81 (7.81) μg/ml in assay [12]. For the same substance, the MIC in [13] was 3.91 µg/mL; in [14], 7.81 (7.81) μg/ml; in [15] it was 3.91 µg/mL; in assay [16], 3.91 (3.91) μg/ml. Further, the MBC in [2] (colony count on MHA) is recorded as 7.81 (7.81) μg/ml; in [3] (colony count on MHA), 7.81 (7.81) μg/ml; in assay [4] (colony count on MHA), 7.81 (7.81) μg/ml; in assay [5] (colony count on MHA), 7.81 (7.81) μg/ml; in [6] (colony count on MHA), 7.81 (7.81) μg/ml; in assay [7] (colony count on MHA) it was 3.91 (3.91) μg/ml. The MBC in assay [8] (colony count on MHA) is 3.91 (3.91) μg/ml; in [9] (colony count on MHA), 7.81 (7.81) μg/ml; in assay [10] (colony count on MHA), 7.81 (7.81) μg/ml; in assay [11] (colony count on MHA), 7.81 (7.81) μg/ml; in [12] (colony count on MHA), 7.81 (7.81) μg/ml; in assay [14] (colony count on MHA), 7.81 (7.81) μg/ml. Besides, the MBC in assay [16] (colony count on MHA) is 3.91 (3.91) μg/ml.

Consider “Nisin: authorized food preservative peptide, binds lipid II and forms membrane pores (ITSISLCTPGCKTGALMGCNMKTATCHCSIHVSK; cysteine pairing not given here; also: lantibiotic nisin-A; UniProt P13068 24-57, looked up)”, for which the MIC in [1], in assay [2], in [3], in assay [4], in assay [5] and in assay [6] was more than 1000 µg/mL each time. Besides, the MIC in [7], in assay [8], in assay [9], in assay [10], in assay [11] and in assay [12] was more than 1000 µg/mL throughout. Further, the MIC in assay [13], in [14], in assay [15] and in [16] was more than 1000 µg/mL in each case.
